From PubChem BioAssay (NCI)
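Briefly, cells in 96-well plates were exposed to five compound concentrations for 48 h, and endpoints were estimated by linear interpolation. At the TGI there is no net growth.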

Tests used:
Assay in all cases: NCI-60 cell line screen, 48 h
M14 melanoma = test system: M14 melanoma
DU-145 prostate = test system: DU-145 prostate
T-47D breast = test system: T-47D breast
SK-MEL-2 melanoma = test system: SK-MEL-2 melanoma
HS 578T breast = test system: HS 578T breast
KM12 colon = test system: KM12 colon
A549 NSCLC = test system: A549 NSCLC
U251 CNS = test system: U251 CNS
HCT-116 colon = test system: HCT-116 colon
MDA-MB-435 = test system: MDA-MB-435
MDA-N = test system: MDA-N
HT29 colon = test system: HT29 colon
BT-549 breast = test system: BT-549 breast
HCC-2998 colon = test system: HCC-2998 colon
786-0 renal = test system: 786-0 renal
SR leukemia = test system: SR leukemia
MCF7 breast = test system: MCF7 breast
CCRF-CEM leukemia = test system: CCRF-CEM leukemia
MDA-MB-231 breast = test system: MDA-MB-231 breast
SF-268 CNS = test system: SF-268 CNS
OVCAR-3 ovarian = test system: OVCAR-3 ovarian
COLO 205 colon = test system: COLO 205 colon
CAKI-1 renal = test system: CAKI-1 renal
SNB-75 CNS = test system: SNB-75 CNS
K-562 leukemia = test system: K-562 leukemia
SK-MEL-5 melanoma = test system: SK-MEL-5 melanoma
HL-60(TB) leukemia = test system: HL-60(TB) leukemia
A498 renal = test system: A498 renal
TK-10 renal = test system: TK-10 renal
HOP-62 NSCLC = test system: HOP-62 NSCLC
NCI-H23 lung = test system: NCI-H23 lung
MALME-3M melanoma = test system: MALME-3M melanoma
SNB-19 CNS = test system: SNB-19 CNS
UACC-257 melanoma = test system: UACC-257 melanoma
LOX IMVI melanoma = test system: LOX IMVI melanoma
EKVX NSCLC = test system: EKVX NSCLC
SF-539 CNS = test system: SF-539 CNS
NCI-H522 lung = test system: NCI-H522 lung
HCT-15 colon = test system: HCT-15 colon
OVCAR-8 ovarian = test system: OVCAR-8 ovarian
UACC-62 melanoma = test system: UACC-62 melanoma
RPMI-8226 leukemia = test system: RPMI-8226 leukemia
ACHN renal = test system: ACHN renal
MOLT-4 leukemia = test system: MOLT-4 leukemia
SK-OV-3 ovarian = test system: SK-OV-3 ovarian
SK-MEL-28 melanoma = test system: SK-MEL-28 melanoma
NCI-H460 lung = test system: NCI-H460 lung
OVCAR-5 ovarian = test system: OVCAR-5 ovarian
PC-3 prostate = test system: PC-3 prostate
SN12C renal = test system: SN12C renal
OVCAR-4 ovarian = test system: OVCAR-4 ovarian
SW-620 colon = test system: SW-620 colon
NCI-H226 lung = test system: NCI-H226 lung
NCI/ADR-RES ovarian = test system: NCI/ADR-RES ovarian
HOP-92 NSCLC = test system: HOP-92 NSCLC
RXF 393 renal = test system: RXF 393 renal
IGROV1 ovarian = test system: IGROV1 ovarian

Cc1ccc(NC(=O)/C=C/c2ccccc2)c(C)c1
TGI (M14 melanoma): > 100 µM
TGI (DU-145 prostate): > 100 µM
TGI (T-47D breast): > 100 µM
TGI (SK-MEL-2 melanoma): > 100 µM
TGI (HS 578T breast): 74.4 µM
TGI (KM12 colon): > 100 µM
TGI (A549 NSCLC): > 100 µM
TGI (U251 CNS): > 100 µM
TGI (HCT-116 colon): > 100 µM
TGI (MDA-MB-435): > 100 µM
TGI (MDA-N): > 100 µM
TGI (HT29 colon): > 100 µM
TGI (BT-549 breast): > 100 µM
TGI (HCC-2998 colon): > 100 µM
TGI (786-0 renal): > 100 µM
TGI (SR leukemia): > 100 µM
TGI (MCF7 breast): > 100 µM
TGI (CCRF-CEM leukemia): > 100 µM
TGI (MDA-MB-231 breast): > 100 µM
TGI (SF-268 CNS): > 100 µM
TGI (OVCAR-3 ovarian): > 100 µM
TGI (COLO 205 colon): > 100 µM
TGI (CAKI-1 renal): > 100 µM
TGI (SNB-75 CNS): > 100 µM
TGI (K-562 leukemia): > 100 µM
TGI (SK-MEL-5 melanoma): > 100 µM
TGI (HL-60(TB) leukemia): > 100 µM
TGI (A498 renal): > 100 µM
TGI (TK-10 renal): > 100 µM
TGI (HOP-62 NSCLC): > 100 µM
TGI (NCI-H23 lung): > 100 µM
TGI (MALME-3M melanoma): > 100 µM
TGI (SNB-19 CNS): > 100 µM
TGI (UACC-257 melanoma): > 100 µM
TGI (LOX IMVI melanoma): > 100 µM
TGI (EKVX NSCLC): > 100 µM
TGI (SF-539 CNS): > 100 µM
TGI (NCI-H522 lung): > 100 µM
TGI (HCT-15 colon): > 100 µM
TGI (OVCAR-8 ovarian): > 100 µM
TGI (UACC-62 melanoma): > 100 µM
TGI (RPMI-8226 leukemia): > 100 µM
TGI (ACHN renal): > 100 µM
TGI (MOLT-4 leukemia): > 100 µM
TGI (SK-OV-3 ovarian): > 100 µM
TGI (SK-MEL-28 melanoma): > 100 µM
TGI (NCI-H460 lung): > 100 µM
TGI (OVCAR-5 ovarian): > 100 µM
TGI (PC-3 prostate): > 100 µM
TGI (SN12C renal): > 100 µM
TGI (OVCAR-4 ovarian): > 100 µM
TGI (SW-620 colon): > 100 µM
TGI (NCI-H226 lung): 92 µM

COc1ccc2oc(=N)c(C(N)=O)cc2c1
TGI (M14 melanoma): > 100 µM
TGI (DU-145 prostate): > 100 µM
TGI (T-47D breast): > 100 µM
TGI (SK-MEL-2 melanoma): 63 µM
TGI (HS 578T breast): 61.7 µM
TGI (KM12 colon): > 100 µM
TGI (A549 NSCLC): > 100 µM
TGI (U251 CNS): > 100 µM
TGI (HCT-116 colon): > 100 µM
TGI (MDA-MB-435): > 100 µM
TGI (NCI/ADR-RES ovarian): > 100 µM
TGI (MDA-N): > 100 µM
TGI (HT29 colon): > 100 µM
TGI (HOP-92 NSCLC): > 100 µM
TGI (BT-549 breast): > 100 µM
TGI (HCC-2998 colon): > 100 µM
TGI (RXF 393 renal): > 100 µM
TGI (786-0 renal): > 100 µM
TGI (SR leukemia): > 100 µM
TGI (CCRF-CEM leukemia): > 100 µM
TGI (MDA-MB-231 breast): > 100 µM
TGI (SF-268 CNS): > 100 µM
TGI (OVCAR-3 ovarian): > 100 µM
TGI (COLO 205 colon): > 100 µM
TGI (CAKI-1 renal): > 100 µM
TGI (SNB-75 CNS): > 100 µM
TGI (K-562 leukemia): > 100 µM
TGI (SK-MEL-5 melanoma): > 100 µM
TGI (HL-60(TB) leukemia): > 100 µM
TGI (A498 renal): > 100 µM
TGI (HOP-62 NSCLC): > 100 µM
TGI (NCI-H23 lung): > 100 µM
TGI (SNB-19 CNS): > 100 µM
TGI (UACC-257 melanoma): > 100 µM
TGI (LOX IMVI melanoma): > 100 µM
TGI (SF-539 CNS): > 100 µM
TGI (HCT-15 colon): > 100 µM
TGI (OVCAR-8 ovarian): > 100 µM
TGI (UACC-62 melanoma): > 100 µM
TGI (RPMI-8226 leukemia): > 100 µM
TGI (ACHN renal): > 100 µM
TGI (MOLT-4 leukemia): > 100 µM
TGI (SK-OV-3 ovarian): > 100 µM
TGI (IGROV1 ovarian): > 100 µM
TGI (SK-MEL-28 melanoma): > 100 µM
TGI (NCI-H460 lung): > 100 µM
TGI (OVCAR-5 ovarian): > 100 µM
TGI (PC-3 prostate): > 100 µM
TGI (SN12C renal): > 100 µM
TGI (OVCAR-4 ovarian): > 100 µM
TGI (SW-620 colon): > 100 µM
TGI (NCI-H226 lung): > 100 µM
